Target: BoNT/A (Clostridium botulinum, UniProt P0DPI1)
Assay type: biochemical

Chain of BoNT/A (P0DPI1 whole entry, looked up): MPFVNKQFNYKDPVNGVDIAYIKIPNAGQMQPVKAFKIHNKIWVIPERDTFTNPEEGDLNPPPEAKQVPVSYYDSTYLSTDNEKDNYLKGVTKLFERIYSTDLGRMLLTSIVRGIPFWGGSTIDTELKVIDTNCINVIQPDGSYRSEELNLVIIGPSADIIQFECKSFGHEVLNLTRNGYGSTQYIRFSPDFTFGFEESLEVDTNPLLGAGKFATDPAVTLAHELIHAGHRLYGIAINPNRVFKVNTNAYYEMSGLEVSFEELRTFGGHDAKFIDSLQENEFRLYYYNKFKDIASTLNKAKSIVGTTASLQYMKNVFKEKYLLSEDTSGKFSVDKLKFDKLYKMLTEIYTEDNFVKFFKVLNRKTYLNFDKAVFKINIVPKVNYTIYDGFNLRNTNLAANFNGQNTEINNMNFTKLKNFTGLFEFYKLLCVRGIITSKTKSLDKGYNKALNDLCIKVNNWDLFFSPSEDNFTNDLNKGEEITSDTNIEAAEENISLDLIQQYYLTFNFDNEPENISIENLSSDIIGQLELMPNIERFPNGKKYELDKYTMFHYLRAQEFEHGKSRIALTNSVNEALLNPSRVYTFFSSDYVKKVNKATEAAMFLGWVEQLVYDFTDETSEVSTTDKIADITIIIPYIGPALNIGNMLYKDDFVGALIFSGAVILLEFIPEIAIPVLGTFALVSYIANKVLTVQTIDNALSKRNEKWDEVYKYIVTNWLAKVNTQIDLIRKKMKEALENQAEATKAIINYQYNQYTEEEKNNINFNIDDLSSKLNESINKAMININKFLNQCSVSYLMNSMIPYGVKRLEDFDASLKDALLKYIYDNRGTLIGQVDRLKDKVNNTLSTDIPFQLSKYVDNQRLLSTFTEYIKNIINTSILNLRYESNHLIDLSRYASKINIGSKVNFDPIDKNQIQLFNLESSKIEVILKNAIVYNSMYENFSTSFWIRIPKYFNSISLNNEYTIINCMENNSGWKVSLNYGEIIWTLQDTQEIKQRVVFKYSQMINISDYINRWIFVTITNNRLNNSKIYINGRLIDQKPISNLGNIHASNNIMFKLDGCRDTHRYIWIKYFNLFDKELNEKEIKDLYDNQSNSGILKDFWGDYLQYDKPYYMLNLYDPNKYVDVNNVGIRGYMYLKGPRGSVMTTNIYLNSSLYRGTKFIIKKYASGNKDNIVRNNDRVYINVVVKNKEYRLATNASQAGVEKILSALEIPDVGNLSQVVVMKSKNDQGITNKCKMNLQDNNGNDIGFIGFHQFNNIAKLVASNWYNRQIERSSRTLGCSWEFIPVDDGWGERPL

Substance: TPEN
- Effect on fluorescent signal of BoNT/A ALISSA: significant suppression of fluorescent signal
